Data published in patent US20240417405A1, “Substituted Spiro Derivatives” (Janssen Pharmaceutica NV, priority 2021, published 2024).
One block for each compound: values may come before it.

Legend:
[1] = target: T1, menin/MLL (terbium chelate-labeled menin, FITC-MBM1 peptide) (Homo sapiens, UniProt O00255, T541A); experiment: Menin/MLL homogenous time-resolved fluorescence (HTRF) assay; type: binding; conditions: 30 min incubation
T1 construct: Menin (a.a 1-610-6xhis tag)
T1 sequence (O00255 with tags, fused parts or gaps T541A): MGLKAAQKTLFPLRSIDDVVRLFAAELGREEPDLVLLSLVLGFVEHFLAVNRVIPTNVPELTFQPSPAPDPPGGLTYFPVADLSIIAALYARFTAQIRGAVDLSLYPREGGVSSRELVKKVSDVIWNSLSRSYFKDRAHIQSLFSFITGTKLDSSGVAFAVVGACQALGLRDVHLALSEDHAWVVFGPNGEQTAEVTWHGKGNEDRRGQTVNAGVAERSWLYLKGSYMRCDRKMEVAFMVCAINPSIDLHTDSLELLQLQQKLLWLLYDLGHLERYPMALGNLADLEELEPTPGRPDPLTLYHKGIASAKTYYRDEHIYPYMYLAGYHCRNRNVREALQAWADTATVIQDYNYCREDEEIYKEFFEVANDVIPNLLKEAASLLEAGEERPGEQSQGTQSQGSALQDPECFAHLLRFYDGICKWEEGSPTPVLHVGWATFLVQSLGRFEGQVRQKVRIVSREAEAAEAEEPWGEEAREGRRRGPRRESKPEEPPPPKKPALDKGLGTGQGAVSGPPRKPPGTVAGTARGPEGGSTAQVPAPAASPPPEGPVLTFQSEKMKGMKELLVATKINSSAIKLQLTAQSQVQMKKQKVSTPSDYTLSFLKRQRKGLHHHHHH
Procedure: 1) Menin/MLL Homogenous Time-Resolved Fluorescence (HTRF) Assay
To an untreated, white 384-well microtiter plate was added 40 nL 200× test compound in DMSO and 4 μL 2× terbium chelate-labeled menin (vide infra for preparation) in assay buffer (40 mM Tris.HCl, pH 7.5, 50 mM NaCl, 1 mM DTT (dithiothreitol) and 0.05% Pluronic F-127). After incubation of test compound and terbium chelate-labeled menin for 30 min at ambient temperature, 4 μL 2× FITC-MBM1 peptide (FITC-β-alanine-SARWRFPARPGT-NH2 (SEQ ID NO: 3)) (“FITC” means fluorescein isothiocyanate) in assay buffer was added, the microtiter plate centrifuged at 1000 rpm for 1 min and the assay mixtures incubated for 15 min at ambient temperature. The relative amount of menin FITC-MBM1 complex present in an assay mixture is determined by measuring the homogenous time-resolved fluorescence (HTRF) of the terbium/FITC donor/acceptor fluorophore pair using an EnVision microplate reader (ex. 337 nm/terbium em. 490 nm/FITC em. 520 nm) at ambient temperature. The degree of fluorescence resonance energy transfer (the HTRF value) is expressed as the ratio of the fluorescence emission intensities of the FITC and terbium fluorophores (F^em 520 nm/F^em 490 nm). The final concentrations of reagents in the binding assay are 200 pM terbium chelate-labeled menin, 75 nM FITC-MBM1 peptide and 0.5% DMSO in assay buffer. Dose-response titrations of test compounds are conducted using an 11 point, four-fold serial dilution scheme, starting typically at 10 μM.
Compound potencies were determined by first calculating % inhibition at each compound concentration according to equation 1:
% inhibition=((HC−LC)−(HTRF^compound−LC))/(HC−LC))*100 (Eqn 1)
Where LC and HC are the HTRF values of the assay in the presence or absence of a saturating concentration of a compound that competes with FITC-MBM1 for binding to menin, and HTRF^compound is the measured HTRF value in the presence of the test compound. HC and LC HTRF values represent an average of at least 10 replicates per plate.
% inhibition=Bottom+(Top−Bottom)/(1+10^((logIC50−log[cmpd])*h)) (Eqn 2)
Where Bottom and Top are the lower and upper asymptotes of the dose-response curve, respectively, IC50 is the concentration of compound that yields 50% inhibition of signal and h is the Hill coefficient. IC50 values below 0.1 nM in the HTRF assay were reported as 0.1 nM in the Table below (detection limit).
Preparation of Terbium cryptate labeling of Menin: Menin (a.a 1-610-6xhis tag (“6xhis tag” disclosed as SEQ ID NO: 2), 2.3 mg/mL in 20 mM Hepes (2-[4-(2-Hydroxyethyl)-1-piperazinyl]ethane sulfonic acid), 80 mM NaCl, 5 mM DTT (Dithiothreitol), pH 7.5) was labeled with terbium cryptate as follows. 200 μg of Menin was buffer exchanged into 1× Hepes buffer. 6.67 μM Menin was incubated with 8-fold molar excess NHS (N-hydroxysuccinimide)-terbium cryptate for 40 minutes at room temperature. Half of the labeled protein was purified away from free label by running the reaction over a NAP5 column with elution buffer (0.1 M Hepes, pH 7+0.1% BSA (bovine serum albumin)). The other half was eluted with 0.1 M phosphate buffered saline (PBS), pH7. 400 μl of eluent was collected for each, aliquoted and frozen at −80° C. The final concentration of terbium-labeled Menin protein was 115 μg/mL in Hepes buffer and 85 μg/mL in PBS buffer, respectively.

MOLM14 cells = experiment: Proliferation assay, spheroid-like growth, MOLM14 (MLL-AF9 rearranged); type: cell-based, human; conditions: Homo sapiens, MOLM-14, 192 h, 8 days, confluence as measure of spheroid size, read-out: spheroid assay_OneTime MOLM14 IC50
Procedure: The anti-proliferative effect of menin/MLL protein/protein interaction inhibitor test compounds was assessed in human leukemia cell lines. The cell line MOLM14 harbors a MLL translocation and expresses the MLL fusion proteins MLL-AF9, respectively, as well as the wildtype protein from the second allele. […] KO-52 was used as a control cell line containing two MLL (KMT2A) wildtype alleles in order to exclude compounds that display general cytotoxic effects.
MOLM14 cells were cultured in RPMI-1640 (Sigma Aldrich) supplemented with 10% heat-inactivated fetal bovine serum (HyClone), 2 mM L-glutamine (Sigma Aldrich) and 50 μg/ml gentamycin (Gibco). KO-52 cell lines were propagated in alpha-MEM (Sigma Aldrich) supplemented with 20% heat-inactivated fetal bovine serum (HyClone), 2 mM L-glutamine (Sigma Aldrich) and 50 μg/ml gentamycin (Gibco).
In order to assess the anti-proliferative effects, 200 MOLM14 cells, or 300 KO-52 cells were seeded in 200 μl media per well in 96-well round bottom, ultra-low attachment plates (Costar, catalogue number 7007). Cell seeding numbers were chosen based on growth curves to ensure linear growth throughout the experiment. Test compounds were added at different concentrations and the DMSO content was normalized to 0.3%. Cells were incubated for 8 days at 37° C. and 5% CO2. Spheroid like growth was measured in real-time by live-cell imaging (IncuCyteZOOM, Essenbio, 4× objective) acquiring images at day 8. Confluence (%) as a measure of spheroid size was determined using an integrated analysis tool.
In order to determine the effect of the test compounds over time, the confluence in each well as a measure of spheroid size, was calculated. Confluence of the highest dose of a reference compound was used as baseline for the LC (Low control) and the confluence of DMSO treated cells was used as 0% cytotoxicity (High Control, HC).
Absolute IC50 values were calculated as percent change in confluence as follows:
LC=Low Control: cells treated with e.g. 1 μM of the cytotoxic agent staurosporin, or e.g. cells treated with a high concentration of an alternative reference compound
GraphPad Prism (version 7.00) was used to calculate the IC50. Dose-response equation was used for the plot of % Effect vs Log 10 compound concentration with a variable slope and fixing the maximum to 100% and the minimum to 0%.

SMILES: CC(C)[C@H]([C@H]1C[C@@H](N2CCC3(CCO3)CC2)C1)N1CC2(CCN(c3ncnnc3Oc3ccc(F)cc3-c3cnncc3C3CC3)C2)C1 (single isomer, unassigned) [Compound 280a]
IC50 [1]: 5 nM
IC50 (MOLM14 cells): > 940 nM

SMILES: CC(C)[C@@H]([C@H]1C[C@@H](N2CCC3(CCO3)CC2)C1)N1CC2(CCN(c3ncnnc3Oc3ccc(F)cc3-c3cnncc3C3CC3)C2)C1 (single isomer, unassigned) [Compound 281a]
IC50 [1]: 0.17 nM
IC50 (MOLM14 cells): 10 nM

SMILES: CC(C)[C@@H]([C@H]1C[C@H](N2CCC3(CCO3)CC2)C1)N1CC2(CCN(c3ncnnc3Oc3ccc(F)cc3-c3cnncc3C3CC3)C2)C1 (single isomer, unassigned) [Compound 281b]
IC50 [1]: 0.31 nM
IC50 (MOLM14 cells): 83 nM

SMILES: CO[C@H]1[C@@H]2CN([C@H]3C[C@@H]([C@H](C(C)C)N4CC5(CCN(c6ncnnc6Oc6ccc(F)cc6-c6cnncc6C6CC6)C5)C4)C3)C[C@@H]21 (single isomer, unassigned) [Compound 282a]
IC50 [1]: 2.4 nM
IC50 (MOLM14 cells): 280 nM

SMILES: CC(C)[C@@H]([C@H]1C[C@]2(COC(=O)N2)C1)N1CC2(CCN(c3ncnnc3Oc3ccc(F)cc3-c3cnncc3C3CC3)C2)C1 (single isomer, unassigned) [Compound 323]
IC50 [1]: 0.2 nM
IC50 (MOLM14 cells): 53 nM

SMILES: CC(C)[C@H]([C@H]1C[C@@H](N2CCC3(CNC(=O)O3)C2)C1)N1CC2(CCN(c3ncnnc3Oc3ccc(F)cc3-c3nnccc3C3CC3)C2)C1 (single isomer, unassigned) [Compound 328]
IC50 [1]: 0.1 nM
IC50 (MOLM14 cells): 33 nM

SMILES: CO[C@H]1CCN([C@H]2C[C@H](C(C(C)C)N3CC4(CCN(c5ncnnc5Oc5ccc(F)cc5-c5nnccc5C5CC5)C4)C3)C2)C1 (single isomer, unassigned) [Compound 332]
IC50 [1]: 0.7 nM
IC50 (MOLM14 cells): 37 nM

SMILES: CC(=O)N1CC2(C1)CN([C@H]1C[C@H]([C@H](C(C)C)N3CC4(CCN(c5ncnnc5Oc5ccc(F)cc5-c5cnc(C)cc5C5CC5)C4)C3)C1)C2 (single isomer, unassigned) [Compound 372]
IC50 [1]: 0.2 nM
IC50 (MOLM14 cells): 18 nM

SMILES: CC(=O)N1CC2(C1)CN([C@H]1C[C@H]([C@H](C(C)C)N3CC4(CCN(c5ncnnc5Oc5ccc(F)cc5-c5ncc(C)cc5C5CC5)C4)C3)C1)C2 (single isomer, unassigned) [Compound 374]
IC50 [1]: 0.19 nM
IC50 (MOLM14 cells): 140 nM

SMILES: CO[C@H]1CCN(C2CC(C(C(C)C)N3CC4(CCN(c5ncnnc5Oc5ccc(F)cc5-c5nnc(C)cc5C5CC5)C4)C3)C2)C1 (single isomer, unassigned) [Compound 399]
IC50 [1]: 0.92 nM
IC50 (MOLM14 cells): 200 nM

Now from value to compound:

IC50 [1]: 24.2 nM
IC50 (MOLM14 cells): > 940 nM
SMILES: CC(C)[C@@H]([C@H]1C[C@@H](NC(=O)C2CC2)C1)N1CC2(CCN(c3ncnnc3Oc3ccc(F)cc3-c3n[nH]c(=O)cc3C3CC3)C2)C1 (single isomer, unassigned) [Compound 310]

IC50 [1]: 0.3 nM
IC50 (MOLM14 cells): 60 nM
SMILES: CC(C)[C@H]([C@H]1C[C@@H](N2CC3(CNC(=O)O3)C2)C1)N1CC2(CCN(c3ncnnc3Oc3ccc(F)cc3-c3cncnc3C3CC3)C2)C1 (single isomer, unassigned) [Compound 317]

IC50 [1]: 0.3 nM
IC50 (MOLM14 cells): 32 nM
SMILES: CC(C)[C@H]([C@H]1C[C@@H](N2CCC3(CN(C)C(=O)O3)C2)C1)N1CC2(CCN(c3ncnnc3Oc3ccc(F)cc3-c3cncnc3C3CC3)C2)C1 (single isomer, unassigned) [Compound 329]

IC50 [1]: 0.1 nM
IC50 (MOLM14 cells): 10 nM
SMILES: CNC(=O)CCN(C)[C@H]1C[C@@H]([C@@H](C(C)C)N2CC3(CCN(c4ncnnc4Oc4ccc(F)cc4-c4cncnc4C4CC4)C3)C2)C1 (single isomer, unassigned) [Compound 350]

IC50 [1]: 0.3 nM
IC50 (MOLM14 cells): 42 nM
SMILES: CC(C)[C@H]([C@H]1C[C@@H](Nc2ccn3ccnc3c2)C1)N1CC2(CCN(c3ncnnc3Oc3ccc(F)cc3-c3cncnc3C3CC3)C2)C1 (single isomer, unassigned) [Compound 406]

IC50 [1]: 0.14 nM
IC50 (MOLM14 cells): 220 nM
SMILES: CC(C)[C@H]([C@H]1C[C@@H](Nc2ccnc(NS(C)(=O)=O)n2)C1)N1CC2(CCN(c3ncnnc3Oc3ccc(F)cc3-c3cncnc3C3CC3)C2)C1 (single isomer, unassigned) [Compound 408]

IC50 [1]: 0.11 nM
IC50 (MOLM14 cells): 19 nM
SMILES: CC(=O)Nc1cncc(N[C@H]2C[C@@H](C(C(C)C)N3CC4(CCN(c5ncnnc5Oc5ccc(F)cc5-c5cncnc5C5CC5)C4)C3)C2)c1 (single isomer, unassigned) [Compound 410]

IC50 [1]: 0.15 nM
IC50 (MOLM14 cells): 10 nM
SMILES: CC(C)C(C1CC(Nc2ncc3cn[nH]c3n2)C1)N1CC2(CCN(c3ncnnc3Oc3ccc(F)cc3-c3cncnc3C3CC3)C2)C1 (single isomer, unassigned) [Compound 411]

IC50 [1]: 0.16 nM
IC50 (MOLM14 cells): < 1.8 nM
SMILES: CC(C)[C@H]([C@H]1C[C@@H](Nc2ccn3ccnc3n2)C1)N1CC2(CCN(c3ncnnc3Oc3ccc(F)cc3-c3cncnc3C3CC3)C2)C1 (single isomer, unassigned) [Compound 412]
